Data taken from patent US10953027B2, “Active agents and methods of their use for the treatment of metabolic disorders and nonalcoholic fatty liver disease” (Flagship Pioneering Innovations V, Inc., priority 2018, dated 2021).

Key:
Caco-2 colonocytes = assay: Human Caco-2 barrier integrity assay (TEER); assay type: cell-based; settings: 48 hours
Method: Caco-2 colonocytes were maintained at 37° C. and 5% CO2 in Dulbecco's Modified Eagle Medium (DMEM) and supplemented with 10% FBS, 1% NEAA, 1% penicillin-streptomycin. At 70-80% confluency, cells were trypsinized and seeded in 0.4 cm^2 transwell collagen I coated membranes with supplemented DMEM in both apical and basolateral compartments. Cells were seeded at a density of 200,000 cells per well and maintained for 10 days to form a polarized barrier with a TransEpithelial Electrial Resistance (TEER) reading above 1000Ω. On the first day of the assay, initial TEER readings were taken and cytokines were added to the basolateral media (50 ng/mL TNFα, 25 ng/mL IFNγ and 10 ng/mL IL-1β) to reduce barrier integrity while compounds diluted in (dimethylsulfoxide) DMSO were added to the apical media in triplicate. After 48 hours, TEER readings were taken again and viability was measured by CellTiter 96® AQueous One Solution Cell Proliferation Assay (Promega). The percent change in TEER over the 48 hours was determined and normalized to the 0.1% DMSO control (Table 6).

[1] = system: Primary human subcutaneous adipocytes; assay: Glucose uptake in human subcutaneous adipocytes, insulin resistant model; assay type: cell-based
Method: As described above, primary human subcutaneous adipocytes were differentiated for two weeks prior to treatment. To induce an insulin resistant state, cells were treated in serum free Dulbecco's Modified Eagle Medium (high glucose) and […] for 24 hours. Cells were simultaneously treated with compounds diluted in DMSO for 24 hours. As described above, after 24 hours, media was exchanged for assay buffer and the compounds were added again but in the presence of approximately 1 nM insulin. Cells were washed and lysed after 2 hours and glucose uptake was measured. […] Statistical changes in glucose uptake were determined by way ANOVA and compared to DMSO.

[2] = system: Human Peripheral Blood Monocytes (PBMCs); assay: Cytokine release from human PBMCs; assay type: cell-based; settings: 100 μM, LPS, 24 hours
Method: Human donor blood (8 mL) was collected in sodium citrate CPT tubes and centrifuged at 1,600×g for 20 minutes at room temperature. […] PBMCs samples were centrifuged at 400×g for 10 minutes at 10° C. […] PBMCs were filtered through a 70 micron mesh to remove any cellular debris. […] PBMCs in a 96-well plate were rested for 30 minutes in a 37° C., 5% CO2 incubator, then subsequently treated with 10 μl of indicated compound. After 2 hours 10 μL of LPS (O111:B4) 1 mg/mL was added to test wells. After 24 hours of incubation at 37° C., 5% CO2, 100 μL of cell supernatant was collected and transferred to a 96-well plate (non-tissue treated, flat bottom). The plate was centrifuged at 350×g for 5 minutes at room temperature, and then the clear supernatant transferred to a new 96-well plate (non-tissue treated, flat bottom). The remaining cells were tested for viability using CellTiter-Glo® Luminescent Cell Viability Assay (Promega). The supernatant was analyzed for TNFα, IL-6 and IL-1β (kit LXSAHM-03; R&D Systems), using Luminex Immunoassay Technology (MAGPIX System). Cytokine levels of LPS treated DMSO control samples were set to 100%, and compound treated samples were expressed relative to this (Table 13).

[3] = system: Primary human subcutaneous adipocytes; assay: Glucose uptake in human subcutaneous adipocytes, insulin sensitive model; assay type: cell-based
Method: Primary human subcutaneous adipocytes (Zen Bio, Research Triangle Park, N.C.) were differentiated for two weeks prior to treatment. Cells were treated with indicated compounds diluted in (dimethyl-sulfoxide) DMSO in serum free medium for 24 hours in triplicate. After 24 hours, media was exchanged for assay buffer and the compounds were added again but in the presence of approximately 1 nM insulin. Glucose uptake was initiated with the addition of a cocktail containing 2-deoxyglucose and ^3H-2-deoxyglucose and allowed to incubate for 2 hours. Cells were washed, lysed and glucose uptake was measured as counts per well. As an assay control, 100 nM of insulin was used during the 2 hours of glucose uptake. […] Statistical changes in glucose uptake were determined by way ANOVA and compared to DMSO.

Mouse 3T3-L1 cells = assay: Mouse adipocyte lipolysis assay; assay type: cell-based; settings: Mus musculus, 3T3-L1; 100 μM, 24 hours; read-out: Lipolysis Free Fatty Acids % DMSO
Method: Once the cells became confluent, they were seeded into a tissue culture treated 96 well plate. […] After 14 days of differentiation, cells were treated with compounds of interest. After 24 hours post-treatment, the cell viability was assessed using CellTiter-Glo Luminescent Cell Viability Assay from Promega, and lipolysis was determined using Lipolysis Assay Kit from ZenBio.

Mouse myocyte = Mouse myocyte lipolysis assay; assay type: cell-based; settings: Mus musculus, read-out: Free glycerol % DMSO
Method: Cells were obtained from ATCC and cultured in Dulbecco's Modified Eagle's medium (DMEM) containing 20% fetal bovine serum and 1% penicillin/streptomycin at 37° C. in an incubator with 5% CO2. Once the cells became confluent, they were seeded into a tissue culture treated 96 well plate. The next day, the medium containing DMEM with 2% equine serum was used to start differentiation. Once cells were fully differentiated, they were treated with indicated compounds.

Male DIO mice = assay: In vivo evaluation for glucose disposal and lipidemia in DIO mice (Example 11); settings: 0.045% in HFD
Method: The DIO mice were prepared by feeding male C57BL/6 mice a high fat diet (HFD, Research Diets D12492) from 6-14 weeks of age. DIO mice were housed individually and maintained on the HFD through the duration of study. A twelve-hour light cycle was maintained with room temperature maintained at 22-25° C. All of the mice were acclimated to the facility for 5 days prior to starting the study.
Following 5 days of facility acclimation, DIO mice were randomized into 8 groups of 10 based on body weight and blood glucose for assignment to treatment, as shown in Table 9:
All treatments were administered admixed in HFD (Research Diets, New Brunswick N.J.) and were provided ad libitum for 30 days. Drinking water for group 7 was supplemented with 1, 3 Butanediol at 3% concentration.
Body weight was recorded at baseline and twice weekly thereafter. Feed and water intakes were recorded each Monday, Wednesday, and Friday.
Blood samples (<3 μL) were obtained one hour post dose by tail clip at baseline and weekly thereafter for measurement of fed blood glucose by StatStrip. Additional anti-coagulated blood samples (100 μl, EDTA di-potassium salt) were obtained by tail clip one hour post-dose at baseline, day 14 and day 30. Anti-coagulated samples were quick frozen and stored on dry ice.
Animals were subjected to a 16 hour fast for performance of an oral glucose tolerance test (OGTT) on day 28. Blood samples were obtained via tail clip just prior to (8 am) and 15, 30, 60, 90, and 120 minutes post-glucose load (2.0 g/kg, PO) for assay of whole blood glucose (StatStrip). Feed was returned following last sample.
Animals were terminated on day 30-31 using CO2 inhalation and induction of pneumothorax. Terminal blood samples were obtained by cardiac puncture. Whole blood was processed to serum and analyzed for serum cholesterol, triglycerides, high density lipoprotein (HDL), low density lipoprotein (LDL) and non-esterified fatty acids (NEFA) using AU480 clinical analyzer.
Organ weights (liver, spleen, subcutaneous fat, inguinal fat, abdominal fat, and epididymal fat) were recorded. Sections of each fat were frozen or fixed in 4% paraformaldehyde/PBS, pH 6.9; Fat samples were placed on dry ice. Fixed liver samples (4% paraformaldehyde) were sent to Premier Laboratories for H&E staining and scoring for steatosis, inflammation and fibrosis. Spleen samples were prepared in ice cold 5% bovine serum albumin (BSA) in PBS or 4% paraformaldehyde. Sections of brain, heart, lung, and small and large intestine were fixed in 10% formalin.
All data are represented as group mean±SEM. Data were analyzed using JMP (SAS software). All normalizations were calculated using terminal body weight.
Baseline differences among groups were identified using Tukey-Kramer Hsd<0.05. Treatment effects compared to control were determined using Oneway ANOVA (*, p<0.05) followed by Dunnett's test where appropriate.

naïve CD4+ T cells = assay: Human regulatory T cell differentiation assay; assay type: cell-based; settings: 6 days
Method: Peripheral blood mononuclear cells (PBMCs) from whole blood donated by health volunteers were separated by Ficoll-Paque gradient centrifugation and naïve CD4^+ T cells were subsequently isolated using magnet beads (EasySep™ Human Naïve CD4^+ T Cell Isolation Kit, Cambridge, Mass.). For regulatory T cell (Treg) differentiation assay, naïve CD4^+ T cells were cultured (1-10×10^4 cells) in CTS OpTmizer medium for 6 days and stimulated with 5 ng/ml TGF-β, 100 U/ml IL-2, and ImmunoCult™ Human […] T Cell Activator; Stemcell #10990) with/without our Compounds. Cell viability was determined using a viability dye (eBioscience Fixable Viability Dye eFluor 780: ThermoFisher 65-0865-14) at 1:500 dilution. The cells were gated for Treg, defined as Live, CD11c^−, CD14^−, CD19^−, CD8^−, CD4^+, CD3^+, CD25^+, FOXP3^+. Percent (%) Tregs were calculated as percentage of CD4^+, CD25^+, FOXP3^+ cells over total CD4^+ T cells. Statistical analysis was performed with GraphPad Prism Software Using One-Way ANOVA.

**Q.** `CCCC(=O)O` [Butyrate, butyrate] was tested. Which “% Change in TEER from DMSO” value (Caco-2 colonocytes; 1 mM + cytokines) did it give?
**A.** − (≤125%: −)

**Q.** What about the “% Change in TEER from DMSO” value (Caco-2 colonocytes; 3 mM + cytokines) of the same compound?
**A.** − (≤125%: −)

**Q.** What about the “% Change in TEER from DMSO” value (Caco-2 colonocytes; 5 mM + cytokines) of the same compound?
**A.** ++ (150%≥ ≤200%: ++)

**Q.** What about the “Insulin Resistant % DMSO (glucose uptake)” value ([1]; 3 mM) of the same compound?
**A.** + (110%> ≤140%: +)

**Q.** What about the “IL6 % DMSO control” value [2] of the same compound?
**A.** + ((+) 50%≥ <90% DMSO)

**Q.** And the “ILβ % DMSO control” value [2]?
**A.** − ((−) ≥110% DMSO;)

**Q.** What about the “TNFα % of DMSO control” value [2] of the same compound?
**A.** ++ ((++) <50% DMSO)

**Q.** What about the “Insulin Sensitive % DMSO (glucose uptake)” value ([3]; 3 mM) of the same compound?
**A.** − (<50%: −)

**Q.** For `C[C@@H](O)CC(=O)O` [(R)-BHB], which insulin-mediated glucose uptake ([1]; insulin-resistant like state, compared to DMSO) is on record?
**A.** significantly enhanced insulin-mediated glucose uptake

**Q.** What about the insulin-mediated glucose uptake ([3]; insulin sensitive model, compared to DMSO) of the same compound?
**A.** significantly enhanced insulin-mediated glucose uptake

**Q.** How did the activity at 100 µM (Mouse 3T3-L1 cells) turn out when `CN(CCOc1ccc(CC2SC(=O)NC2=O)cc1)c1ccccn1` (stereo not shown) [Rosiglitazone, rosiglitazone, reference compound] was run?
**A.** ≤ 50%

**Q.** And the activity at 10 µM (Mouse myocyte; 10 μM)?
**A.** 50 to 70%

**Q.** And the activity at 100 µM (Mouse myocyte; 100 μM)?
**A.** 50 to 70%

**Q.** And the “Abdominal fat (% BW)” value (Male DIO mice)?
**A.** *1.6 ± 0.1 % BW

**Q.** And the “Blood glucose (fed) change compared to baseline” value (Male DIO mice)?
**A.** −22.8±3.7%

**Q.** What about the “Epididymal fat (% BW)” value (Male DIO mice) of the same compound?
**A.** 4.1 ± 0.2 % BW

**Q.** And the “Inguinal fat (% BW)” value (Male DIO mice)?
**A.** 0.78 ± 0.05 % BW

**Q.** What about the “Subcutaneous fat (% BW)” value (Male DIO mice) of the same compound?
**A.** *7.6 ± 0.5 % BW

**Q.** What about the “Fasting blood glucose levels (time 0 from OGTT)” value (Male DIO mice; 28 days, 16 hour fast) of the same compound?
**A.** 91.3 ± 2.5 mg/dL

**Q.** What about the “change in body weight from baseline” value (Male DIO mice; 30 days) of the same compound?
**A.** 22.8±1.9%

**Q.** And the Cholesterol (Male DIO mice; terminal (fed) serum)?
**A.** *121.5 ± 7.3 mg/dL

**Q.** What about the HDL (Male DIO mice; terminal (fed) serum) of the same compound?
**A.** *60.5 ± 3.0 mg/dL

**Q.** What about the LDL (Male DIO mice; terminal (fed) serum) of the same compound?
**A.** 8.0 ± 0.5 mg/dL

**Q.** And the NEFA (Male DIO mice; terminal (fed) serum)?
**A.** *0.71 ± 0.04 mEq/L

**Q.** And the Triglycerides (Male DIO mice; terminal (fed) serum)?
**A.** 91.3 ± 4.8 mg/dL

**Q.** And the “Cell viability % DMSO” value (naïve CD4+ T cells; 10 uM)?
**A.** = (90%≥ ≤110%: =)

**Q.** And the “Cell viability % DMSO” value (naïve CD4+ T cells; 100 uM)?
**A.** − (<90%: −)

**Q.** What about the activity at 10 µM (naïve CD4+ T cells; Homo sapiens, CD4+ T, 144 h, 10 uM, read-out: Treg induction % DMSO) of the same compound?
**A.** 90 to 110%

**Q.** And the activity at 100 µM (naïve CD4+ T cells; Homo sapiens, CD4+ T, 144 h, 100 uM, read-out: Treg induction % DMSO)?
**A.** 90 to 110%

**Q.** How did the “% Change in TEER from DMSO” value (Caco-2 colonocytes; 200 μM + cytokines) turn out when `CC(O)CC(=O)O` (stereo not drawn) [BHB, β-hydroxybutyrate] was run?
**A.** + (125%> ≤150%: +)

**Q.** And the “% Change in TEER from DMSO” value (Caco-2 colonocytes; 2 mM + cytokines)?
**A.** − (≤125%: −)

**Q.** And the “IL6 % DMSO control” value [2]?
**A.** = ((=) 90%≥ <110% DMSO)

**Q.** And the “ILβ % DMSO control” value [2]?
**A.** − ((−) ≥110% DMSO;)

**Q.** And the “TNFα % of DMSO control” value [2]?
**A.** − ((−) ≥110% DMSO;)
